#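 The compound was tested at five concentrations on cells cultured in 96-well plates, with a 48-hour exposure period. The concentration for 50% growth inhibition is given as GI50. At the TGI there is no net growth.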
# Legend:
# Test in all cases: NCI anticancer screen, dose series, 48 h
# [1] = tested on: UO-31 renal
# [2] = tested on: OVCAR-8 ovarian
# [3] = tested on: MOLT-4 leukemia
# [4] = tested on: SK-MEL-5 melanoma
# [5] = tested on: SF-539 CNS
# [6] = tested on: SF-295 CNS
# [7] = tested on: SN12C renal
# [8] = tested on: U251 CNS
# [9] = tested on: LOX IMVI melanoma
# [10] = tested on: DU-145 prostate
# [11] = tested on: UACC-257 melanoma
# [12] = tested on: MALME-3M melanoma
# [13] = tested on: TK-10 renal
# [14] = tested on: MDA-MB-435
# [15] = tested on: IGROV1 ovarian
# [16] = tested on: BT-549 breast
# [17] = tested on: A498 renal
# [18] = tested on: HCT-15 colon
# [19] = tested on: A549 NSCLC
# [20] = tested on: PC-3 prostate
# [21] = tested on: HCT-116 colon
# [22] = tested on: M14 melanoma
# [23] = tested on: HOP-92 NSCLC
# [24] = tested on: RPMI-8226 leukemia
# [25] = tested on: MDA-MB-231 breast
# [26] = tested on: SF-268 CNS
# [27] = tested on: NCI-H460 lung
# [28] = tested on: KM12 colon
# [29] = tested on: HS 578T breast
# [30] = tested on: NCI-H226 lung
# [31] = tested on: CCRF-CEM leukemia
# [32] = tested on: SNB-19 CNS
# [33] = tested on: K-562 leukemia
# [34] = tested on: OVCAR-3 ovarian
# [35] = tested on: HT29 colon
# [36] = tested on: UACC-62 melanoma
# [37] = tested on: OVCAR-5 ovarian
# [38] = tested on: SR leukemia
# [39] = tested on: HL-60(TB) leukemia
# [40] = tested on: NCI/ADR-RES ovarian
# [41] = tested on: SK-MEL-2 melanoma
# [42] = tested on: ACHN renal
# [43] = tested on: CAKI-1 renal
# [44] = tested on: RXF 393 renal
# [45] = tested on: T-47D breast
# [46] = tested on: SW-620 colon
# [47] = tested on: MCF7 breast
# [48] = tested on: COLO 205 colon
# [49] = tested on: SNB-75 CNS
# [50] = tested on: NCI-H522 lung
# [51] = tested on: SK-MEL-28 melanoma
# [52] = tested on: HOP-62 NSCLC
# [53] = tested on: 786-0 renal
# [54] = tested on: EKVX NSCLC
# [55] = tested on: SK-OV-3 ovarian
# [56] = tested on: NCI-H23 lung
# [57] = tested on: OVCAR-4 ovarian
# [58] = tested on: HCC-2998 colon
structure (smiles),measurement,setting,value
COc1cc(/C=C/C(=O)c2c(C)n([O-])c3ccc(Cl)cc3[n+]2=O)cc(OC)c1OC,GI50,[1],1.55 µM
same,TGI,[1],5.47 µM
same,GI50,[2],11.8 µM
same,TGI,[2],33.4 µM
same,GI50,[3],> 100 µM
same,TGI,[3],> 100 µM
same,GI50,[4],68 µM
same,TGI,[4],> 100 µM
same,GI50,[5],25.4 µM
same,TGI,[5],52.6 µM
same,GI50,[6],35 µM
same,TGI,[6],> 100 µM
same,GI50,[7],67.6 µM
same,TGI,[7],> 100 µM
same,GI50,[8],34.4 µM
same,TGI,[8],> 100 µM
same,GI50,[9],90.2 µM
same,TGI,[9],> 100 µM
same,GI50,[10],21.7 µM
same,TGI,[10],> 100 µM
same,GI50,[11],49.6 µM
same,TGI,[11],> 100 µM
same,GI50,[12],14.1 µM
same,TGI,[12],35.3 µM
same,GI50,[13],26.5 µM
same,TGI,[13],97.7 µM
same,GI50,[14],> 100 µM
same,TGI,[14],> 100 µM
same,GI50,[15],35.4 µM
same,TGI,[15],> 100 µM
same,GI50,[16],18.7 µM
same,TGI,[16],42.5 µM
same,GI50,[17],23.5 µM
same,TGI,[17],> 100 µM
same,GI50,[18],> 100 µM
same,TGI,[18],> 100 µM
same,GI50,[19],59.8 µM
same,TGI,[19],> 100 µM
same,GI50,[20],27.5 µM
same,TGI,[20],> 100 µM
same,GI50,[21],76 µM
same,TGI,[21],> 100 µM
same,GI50,[22],> 100 µM
same,TGI,[22],> 100 µM
same,GI50,[23],0.0718 µM
same,TGI,[23],3.53 µM
same,GI50,[24],> 100 µM
same,TGI,[24],> 100 µM
same,GI50,[25],14.7 µM
same,TGI,[25],96.6 µM
same,GI50,[26],15.4 µM
same,TGI,[26],> 100 µM
same,GI50,[27],56.6 µM
same,TGI,[27],> 100 µM
same,GI50,[28],> 100 µM
same,TGI,[28],> 100 µM
same,GI50,[29],12.4 µM
same,TGI,[29],64.3 µM
same,GI50,[30],65.2 µM
same,TGI,[30],> 100 µM
same,GI50,[31],> 100 µM
same,TGI,[31],> 100 µM
same,GI50,[32],21.2 µM
same,TGI,[32],77 µM
same,GI50,[33],15.2 µM
same,TGI,[33],> 100 µM
same,GI50,[34],> 100 µM
same,TGI,[34],> 100 µM
same,GI50,[35],> 100 µM
same,TGI,[35],> 100 µM
same,GI50,[36],> 100 µM
same,TGI,[36],> 100 µM
same,GI50,[37],> 100 µM
same,TGI,[37],> 100 µM
same,GI50,[38],8.4 µM
same,TGI,[38],> 100 µM
same,GI50,[39],> 100 µM
same,TGI,[39],> 100 µM
same,GI50,[40],90.9 µM
same,TGI,[40],> 100 µM
same,GI50,[41],> 100 µM
same,TGI,[41],> 100 µM
same,GI50,[42],> 100 µM
same,TGI,[42],> 100 µM
same,GI50,[43],> 100 µM
same,TGI,[43],> 100 µM
same,GI50,[44],10.2 µM
same,TGI,[44],30.2 µM
same,GI50,[45],40.5 µM
same,TGI,[45],> 100 µM
same,GI50,[46],> 100 µM
same,TGI,[46],> 100 µM
same,GI50,[47],57 µM
same,TGI,[47],> 100 µM
same,GI50,[48],> 100 µM
same,TGI,[48],> 100 µM
same,GI50,[49],17.3 µM
same,TGI,[49],40.6 µM
same,GI50,[50],> 100 µM
same,TGI,[50],> 100 µM
same,GI50,[51],> 100 µM
same,TGI,[51],> 100 µM
same,GI50,[52],60.2 µM
same,TGI,[52],> 100 µM
same,GI50,[53],33.1 µM
same,TGI,[53],> 100 µM
same,GI50,[54],25.2 µM
same,TGI,[54],> 100 µM
same,GI50,[55],34.6 µM
same,TGI,[55],> 100 µM
same,GI50,[56],50.5 µM
same,TGI,[56],> 100 µM
same,GI50,[57],> 100 µM
same,TGI,[57],> 100 µM
same,GI50,[58],> 100 µM
same,TGI,[58],> 100 µM
CS(=O)(=O)Nc1cc(-c2ccc3ncnc(Nc4ccc5c(cnn5Cc5ccccc5F)c4)c3c2)cnc1Cl,GI50,[1],3.23 µM
same,TGI,[1],> 100 µM
same,GI50,[2],2.72 µM
same,TGI,[2],> 100 µM
same,GI50,[3],1.54 µM
same,TGI,[3],7.48 µM
same,GI50,[4],1.76 µM
same,TGI,[4],3.28 µM
same,GI50,[5],1.09 µM
same,TGI,[5],4.9 µM
same,GI50,[6],1.96 µM
same,TGI,[6],8.51 µM
same,GI50,[7],1.13 µM
same,TGI,[7],> 100 µM
same,GI50,[8],2.11 µM
same,TGI,[8],14.4 µM
same,GI50,[9],1.69 µM
same,TGI,[9],4.71 µM
same,GI50,[10],2 µM
same,TGI,[10],> 38.2 µM
same,GI50,[11],1.51 µM
same,TGI,[11],9 µM
same,GI50,[12],0.466 µM
same,TGI,[12],3 µM
same,GI50,[13],1.28 µM
same,TGI,[13],5.44 µM
same,GI50,[14],2.35 µM
same,TGI,[14],8.32 µM
same,GI50,[15],0.575 µM
same,TGI,[15],4.31 µM
same,GI50,[16],1.57 µM
same,TGI,[16],8.73 µM
same,GI50,[17],1.05 µM
same,TGI,[17],3.71 µM
same,GI50,[18],3.28 µM
same,TGI,[18],55 µM
same,GI50,[19],2.87 µM
same,TGI,[19],> 53.7 µM
same,GI50,[20],1.31 µM
same,TGI,[20],> 23.6 µM
same,GI50,[21],2.08 µM
same,TGI,[21],> 33.7 µM
same,GI50,[22],2.66 µM
same,TGI,[22],15.6 µM
same,GI50,[23],0.131 µM
same,GI50,[24],1.64 µM
same,TGI,[24],4.18 µM
same,GI50,[25],1.51 µM
same,TGI,[25],> 100 µM
same,GI50,[26],1.31 µM
same,TGI,[26],9.18 µM
same,GI50,[27],2.1 µM
same,TGI,[27],58 µM
same,GI50,[28],2.48 µM
same,TGI,[28],8.1 µM
same,GI50,[29],0.249 µM
same,TGI,[29],1.84 µM
same,GI50,[30],1.74 µM
same,TGI,[30],11.3 µM
same,GI50,[31],0.634 µM
same,TGI,[31],> 31.2 µM
same,GI50,[32],1.77 µM
same,TGI,[32],> 55.5 µM
same,GI50,[33],2.27 µM
same,TGI,[33],> 100 µM
same,GI50,[34],0.795 µM
same,TGI,[34],3.13 µM
same,GI50,[35],1.6 µM
same,TGI,[35],> 47.3 µM
same,GI50,[36],1.47 µM
same,TGI,[36],5.37 µM
same,GI50,[37],2.22 µM
same,TGI,[37],> 100 µM
same,GI50,[38],3.86 µM
same,TGI,[38],> 100 µM
same,GI50,[39],1.02 µM
same,TGI,[39],6.02 µM
same,GI50,[40],8.32 µM
same,TGI,[40],> 100 µM
same,GI50,[41],1.52 µM
same,TGI,[41],4.65 µM
same,GI50,[42],3.24 µM
same,TGI,[42],> 52.9 µM
same,GI50,[43],1.71 µM
same,TGI,[43],5.62 µM
same,GI50,[44],1.41 µM
same,TGI,[44],5.85 µM
same,GI50,[45],0.367 µM
same,TGI,[45],3.14 µM
same,GI50,[46],1.94 µM
same,TGI,[46],> 35.9 µM
same,GI50,[47],1.48 µM
same,TGI,[47],30.3 µM
same,GI50,[48],2.39 µM
same,TGI,[48],9.09 µM
same,GI50,[49],0.157 µM
same,TGI,[49],2.4 µM
same,GI50,[50],1.18 µM
same,TGI,[50],8.03 µM
same,GI50,[51],0.771 µM
same,TGI,[51],6.59 µM
same,GI50,[52],0.457 µM
same,TGI,[52],> 100 µM
same,GI50,[53],1.84 µM
same,TGI,[53],> 100 µM
same,GI50,[54],1.69 µM
same,TGI,[54],9.53 µM
same,GI50,[55],0.845 µM
same,TGI,[55],3.96 µM
same,GI50,[56],2.81 µM
same,TGI,[56],> 100 µM
same,GI50,[57],3 µM
same,TGI,[57],> 100 µM
same,GI50,[58],2.2 µM
same,TGI,[58],8.46 µM
